Laboratory results taken from patent US20130281512A1, “AGENTS FOR TREATING DISORDERS INVOLVING MODULATION OF RYANODINE RECEPTORS” (LES LABORATOIRES SERVIER, priority 2012, published 2013).

Tests used:
Format in all cases: in vitro ADME
[1] = Metabolic stability in rat hepatic microsomes (Clint, predicted MF %)
Description: Compound solubilization: Stock solutions were made in DMSO, and working solutions in water containing 1 mg/ml BSA.
Prediction of metabolic bioavailability: Metabolic bioavailability predictions (MF %) were based on in vitro metabolic stability measurements with hepatic microsomes assuming total absorption. Briefly, unchanged drugs were quantified by LC-MS-MS following incubation (10^−7M) with rat and human hepatic microsomes (0.33 mg protein/ml) after 0, 5, 15, 30 and 60 min of incubation in presence of NADPH (1 mM). Enzymatic reaction was stopped with methanol (v/v) and proteins were precipitated by centrifugation. The in vitro intrinsic clearances (Clint_mic) expressed as ml/min/g protein were the slope (after LN linearization) of the unchanged drug remaining concentration versus incubation time. In vitro Clint were then scaled up to in vivo whole body (vivoClint) using 0.045 mg prot/kg of liver and liver weight of 11 g for the rat and 1.2 kg for Man.

human hepatocytes = assay: Metabolic stability in human hepatocytes
Description: Compound solubilization: Stock solutions were made in DMSO, and working solutions in William medium containing 1/10 rat plasma or 1/4 human plasma.
Metabolic stability determination: Compounds were incubated at 10^−7 M with isolated hepatocytes (6E+5 cells/ml for rat hepatocytes and 4E+5 cells/ml for human hepatocytes) at 37° C. in plasma from the same species diluted in Wiliams medium (1/10 dilution for rat and 1/4 dilution for human). Sampling times were performed at 0, 10, 20, 30, 60 and 120 min and enzymatic reaction stopped with methanol (v/v). Proteins were precipitated by centrifugation and the supernatant was analyzed by LC/MS/MS. Clint expressed as ml/min/g protein were calculated as for hepatic microsomes using a ratio of 0.134 mg protein/ml for 4E+5 cells/ml for human and 0.201 mg protein/ml for 6E+5 cells/ml for rat. The presence of the reference drug and the potential metabolite was checked by LC/MS/MS during the assay in each sample.

[2] = Metabolic stability in rat microsomes (% remaining)
Description: 0.1M Tris HCl buffer at pH 7.4 containing 5 mM EDTA.
To a 50 mL falcon tube containing 2.79 mL of dilution buffer were added 0.429 mL of NADPH-regenerating soln. A and 0.079 mL of NADPH-regenerating soln. B […]
[…] A 50 mL falcon tube containing 3.32 mL of dilution buffer was prewarmed at 37° C. for 15 min. (at least 10 min.) 0.178 mL of microsome (24.6 mg/mL) were added to the prewarmed dilution buffer. The protein concentration of this microsome preparation was 1.25 mg/mL.
Sample (Test Compound)—Original and Intermediate Stock Solutions:
100 μM intermediate solution of the test compound from the original stock solution were prepared using the dilution buffer. A 5 μM solution was prepared by diluting the 100 μM intermediate solution using dilution buffer.
(The experiments were conducted in 1.5 mL eppendorf micro centrifuge tubes) 0 minutes incubation. Procedure: a. Add 100 μL of prewarmed microsomes b. Add 50 μL of 5 μM solution of the test compound. c. Add 500 μL of cold stop solution (ice cold Methanol) d. Add 100 μL of NADPH cofactor solution to the eppendorf. a. Vortex mix the eppendorf. […]
b. Add 100 μL of NADPH cofactor solution to the eppendorf. c. Add 50 μL of 5 μM solution of the test compound. d. Add 100 μL of prewarmed microsomes e. Incubate the eppendorf at 37° C. 300 rpm for ‘t’ min. on a thermomixer. f. Remove the eppendorf from thermomixer g. Add 500 μL of cold stop solution (ice cold Methanol) h. Vortex mix the eppendorf.
Both the ‘0’ and ‘t’ minutes incubated samples were centrifuged at 15, 000 rcf at 4° C. for 15 min. 500 μL of the supernatant solution was removed and subject it to LC/MS analysis (SIM—Selected Ion Monitoring) […]
Results are expressed as % test compound remaining=(MS Area response of T min sample/MS Area response of ‘0’ min sample)*100. The MS area used is an average of duplicate injections.
Time points=0, 15, 30 and 60 min. for each test compound
2 μM Imipramine—5 min. and 2 μM Imipramine—15 min. incubation was used as a positive control for the rat and mouse liver microsome stability experiments.

COc1ccc2c(c1)CN(Cc1ccc(C(=O)O)cc1)CCS2 [Compound 1, 4-((7-Methoxy-2,3-dihydrobenzo[f][1,4]thiazepin-4(5H)-yl)methyl)benzoic acid]
Class (metabolic bioavailability) [1]: Inter- mediate
Clint_mic rat (in vitro intrinsic clearance) ([1]; 10^-7 M, 0.33 mg protein/ml, NADPH): 101 ml/min/gprot
MF mic % (metabolic bioavailability) ([1]; predicted from Clint assuming total absorption): 30%
MF human % (human hepatocytes): 100%
Clint (human hepatocytes; 4.00E+05 cells/ml, 10^-7 M): 0 ml/min/gprot
% remaining ([2]; 15 min): 54%
% remaining ([2]; 30 min): 17%
% remaining ([2]; 1 h): 2%
